The test system of one assay is CD11b^+ cDCs. Put plainly: Antigen presentation by CD11b+ cDCs to OT-II CD4+ T cells in vitro. The class given is cell-based, mice. The conditions noted are these: CD11b+ cDCs stimulated with 200 nM. Here is the method:
Antigen presentation assays were performed as previously described ([38]). Briefly, ovalbumin (OVA) (10 µg/mL; Sigma A7641) pulsed cDCs were stimulated with or without TLR agonists for 4 h. OT-I CD8^+ T cells and OT-II CD4^+ T cells were purified and then labeled by carboxyfluorescein diacetate succinimidyl ester (CFSE) (1 µM; Molecular Probes C34554). CD8^+ cDCs were cocultured with OT-I CD8^+ T cells for 60 h, whereas CD11b^+ cDCs were cocultured with OT-II CD4^+ T cells for 96 h, both in the presence of granulocyte-macrophage colony-stimulating factor (GM-CSF) (20 ng/mL; Peprotech 315-03). Proliferated OT-I or OT-II T cells were defined as diluted CFSE signal analyzed by flow cytometry. The numbers of T cells were counted by AccuCheck counting beads (Molecular Probes PCB100). […] Cells were washed twice with cold medium and analyzed by flow cytometry.
Figure 5 SUP3 enhanced antigen presentation ability of CD11b^+ conventional dendritic cells (cDCs) and production of antibodies against thymus-dependent (TD) antigens. […] Three days after immunization, division of OT-II CD4^+ T cells from inguinal lymph nodes were analyzed by flow cytometry (B). Absolute numbers of proliferated OT-II CD4^+ T cells were calculated in (C). […] Cells were then thoroughly washed and cocultured with CFSE-stained OT-II CD4^+ T cells for 4 days and analyzed by flow cytometry. […]

Assay [1] concerns OVA-expressing B16 melanoma cells (B16-OVA). Description: B16-OVA melanoma lung metastasis tumor model after immunization. It counts as in vivo, mice. The following applies: immunized OCS + 2 nmol per mouse for 30 days, B16-OVA 5 × 10^5 cells i.v., 16 days after challenge; vs OCS alone or OCS with Pam3. An excerpt:
Tumor model was applied as previously described with some modifications ([42]). Briefly, mice were immunized by OCS alone, OCS with Pam3 (2 nmol per mouse), or OCS with SUP3 (2 nmol per mouse) for 30 days. Then mice were i.v. injected with OVA-expressing B16 melanoma cells (B16-OVA) (5 × 10^5 cells per mouse). After 16 days, the numbers of metastatic tumors in lung were counted.
Figure 2 SUP3 induced more vigorous cytotoxic T lymphocytes (CTLs) responses than Pam3CSK4 without excessive production of inflammatory cytokines in vivo. […] The percentages of pentamer positive cells (CD19^− CD3^+ CD8^+ SIINFEKL/H-2Kb-Pentamer^+) in spleens, i.e., the OVA-specific CD8^+ T cells, were determined by flow cytometry (A) and the statistic calculation is presented in (B). […] (C,D) Mice were immunized as in (A) for 30 days, then inoculated with OVA-expressing B16 melanoma cells (B16-OVA) (5 × 10^5 cells per mouse) by i.v. injection and analyzed for metastatic tumor formation in the lung 16 days after inoculation. […] (E) Mice were i.v. injected with SUP3 (2 nmol per mouse), Pam3 (2 nmol per mouse), or lipopolysaccharide (LPS) (1 µg per mouse) for 1 h, the serum was collected, and the levels of different cytokines were determined by ELISA. “n.d.” indicates “not detected.” *p < 0.05, **p < 0.01. […]

The structures appear in SMILES notation. Where a SMILES comes first, the peptide text is derived from it. The star is where a group is joined. X1 = CCCCCCCCCCCCCCNC(=O)OC[C@H](C*)OC(=O)NCCCCCCCCCCCCCC; Palmitoyl = CCCCCCCCCCCCCCCC(=O)*

As to `CCCCCCCCCCCCCCCC(=O)N[C@@H](CSC[C@@H](COC(=O)NCCCCCCCCCCCCCC)OC(=O)NCCCCCCCCCCCCCC)C(=O)NCC(=O)N[C@@H](CCCCN)C(=O)N[C@@H](CCCCN)C(=O)N[C@@H](CCCCN)C(=O)O` [SUP3, (2S,5S,8S,14R,18R)-2,5,8-tris(4-aminobutyl)-4,7,10,13,21-pentaoxo-14-palmitamido-18-((tetradecylcarbamoyl)oxy)-20-oxa-16-thia-3,6,9,12,22-pentaazahexatriacontan-1-oic acid] (Palmitoyl-C(X1)GKKK-OH), the “OT-II CD4+ T cell proliferation in vitro” value in the assay with CD11b^+ cDCs was “enhanced OT-II CD4^+ T cell proliferation”. Further, in assay [1], the “number of metastatic tumors in the lungs” value is given as “markedly reduced number of tumors in the lungs”.

Source of the values: article PMC5318439, “The Novel Toll-Like Receptor 2 Agonist SUP3 Enhances Antigen Presentation and T Cell Activation by Dendritic Cells” (Frontiers in Immunology, 2017).
